Reference: ChEMBL document CHEMBL3987221, “The Australian National University Dept Of Immunology Pathogen Box Compounds Screened” (2018)
The source made the active and inactive calls. How the calls were made is not given here.

Key:
[1] = molecular target: T1, Ferrochelatase, mitochondrial (Homo sapiens) (UniProt P22830); conditions: at 10 µM
T1 sequence (whole entry): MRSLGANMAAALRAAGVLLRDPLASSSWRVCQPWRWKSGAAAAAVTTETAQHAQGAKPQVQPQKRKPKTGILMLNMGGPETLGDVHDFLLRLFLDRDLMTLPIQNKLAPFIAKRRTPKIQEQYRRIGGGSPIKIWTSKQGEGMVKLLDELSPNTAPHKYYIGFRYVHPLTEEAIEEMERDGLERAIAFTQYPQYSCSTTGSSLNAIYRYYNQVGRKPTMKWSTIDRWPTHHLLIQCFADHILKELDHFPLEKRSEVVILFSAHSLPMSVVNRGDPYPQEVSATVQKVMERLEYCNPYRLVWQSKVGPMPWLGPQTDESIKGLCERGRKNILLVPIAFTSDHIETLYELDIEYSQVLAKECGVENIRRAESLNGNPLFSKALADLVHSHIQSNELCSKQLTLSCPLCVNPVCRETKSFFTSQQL
Description: Compound was evaluated for the inhibition of human FECH at 10uM

[2] = molecular target: T2, Porphobilinogen deaminase (Homo sapiens) (UniProt P08397); conditions: at 100 µM
T2 sequence (whole entry): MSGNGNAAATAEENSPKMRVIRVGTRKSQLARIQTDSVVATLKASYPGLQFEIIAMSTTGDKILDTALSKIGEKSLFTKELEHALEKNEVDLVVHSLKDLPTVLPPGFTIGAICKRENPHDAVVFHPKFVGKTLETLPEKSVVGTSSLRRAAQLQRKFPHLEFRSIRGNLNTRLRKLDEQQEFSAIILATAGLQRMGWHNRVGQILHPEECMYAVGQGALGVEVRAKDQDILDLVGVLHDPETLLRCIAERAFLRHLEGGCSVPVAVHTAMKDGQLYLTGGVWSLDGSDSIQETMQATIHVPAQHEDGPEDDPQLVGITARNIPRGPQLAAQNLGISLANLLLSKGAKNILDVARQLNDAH
Description: Compound was evaluated for the inhibition of human HMBS at 100uM

Row | inhibition [1] | inhibition [2] | SMILES
1 | inactive | inactive | COc1ccc(-c2nnc3ccc(-c4cccc(C(C)C)c4)cn23)cc1OC
2 | inactive | inactive | O=C(C1CCN(c2nnnn2-c2ccccc2)CC1)N1CCc2ccccc2C1
3 | inactive | inactive | CNC(=O)c1cc(S(=O)(=O)N2CCN(c3ccccn3)CC2)cs1
4 | inactive | inactive | O=C(c1cc2ccccc2o1)N1CCN(Cc2ccc3c(c2)OCO3)CC1
5 | inactive | inactive | NCC(=O)N1CCn2c(nc(-c3ccccc3)c2Nc2ccc3c(c2)OCO3)C1
6 | inactive | inactive | O=C(NCc1ccco1)N1CCN(Cc2ccc(Cl)s2)CC1
7 | inactive | inactive | COc1cc(C2=NCCN2)ccc1-c1cn(-c2cccc(C3=NCCN3)c2)nn1
8 | inactive | inactive | c1ccc(-c2[nH]c3ccccc3c2C(c2ccccn2)N2CCCC2)cc1 (stereo not drawn)
9 | inactive | inactive | Cc1nn2c(=O)c3c([nH]c2c1-c1ccc(Cl)cc1)CCCC3
10 | inactive | inactive | c1ccc(Oc2ccc(-c3cc(N4CCOCC4)[nH]n3)cc2)cc1
11 | inactive | inactive | Cn1ncc2c(N3CCOCC3)nc(NCCc3c[nH]c4ccccc34)nc21
12 | inactive | inactive | CCOc1ccc2cc(-c3nn(CC4CCN(C)CC4)c4ncnc(N)c34)ccc2c1
13 | inactive | inactive | Clc1cccc(C(c2ccc(CN3CCNCC3)cc2)n2ccnc2)c1 (stereo not drawn)
14 | inactive | inactive | CN1CCN(c2nccc3[nH]c(-c4cccc(F)c4)cc23)CC1
15 | inactive | inactive | Cc1ccc2[nH]c(C3CCCNC3)c(-c3ccncc3)c2c1 (stereo not drawn)
16 | inactive | inactive | CNc1cc(C)nc(C2CN(C(=O)c3n[nH]c4ccccc34)CCO2)c1 (stereo not drawn)
17 | inactive | inactive | O=C1Nc2ccc(Br)cc2C12NCCc1c2[nH]c2ccccc12 (stereo not drawn)
18 | inactive | inactive | O=C(OCc1ccccc1)N1CCC(c2cc(-c3ccncc3)c(-c3ccc(F)cc3)[nH]2)CC1
19 | inactive | inactive | Nc1ncnc2c1c(Cc1cccc3ccccc13)nn2CC1CCNCC1
20 | inactive | inactive | Cc1ccc(S(=O)(=O)Nc2ccc(CN3CCN(C(=O)c4cccc(C#N)c4)CC3)cc2)cc1
21 | inactive | inactive | O=C(C1CCN(c2cc(-n3cccc3)ncn2)CC1)N1CCc2ccccc2C1
22 | inactive | inactive | Cc1cc(C)n2nc(C(=O)Nc3cc(C(F)(F)F)ccc3N3CCOCC3)nc2n1
23 | inactive | inactive | COc1cccc(-c2nc3c(N4CCCC4)cccc3n2CC2CCCN2)n1 (stereo not drawn)
24 | inactive | inactive | NS(=O)(=O)c1cccc(-c2ccc3ncc(N4CCOCC4)nc3c2)c1
25 | inactive | inactive | CS(=O)(=O)N1CCC(Cn2nc(Cc3cccc4ccccc34)c3c(N)ncnc32)CC1
26 | inactive | inactive | CS(=O)(=O)c1cccc(-c2cnc3[nH]cc(-c4ccc(CCC(=O)O)cc4)c3c2)c1
27 | inactive | inactive | CCc1cc(=O)n(C)c(SC(C)C(=O)Nc2ccc(F)cc2)n1 (stereo not drawn)
28 | inactive | inactive | COc1ccc(C2=NN(C3CCCCCC3)C(=O)C2(C)C)cc1OCc1ccccn1
29 | inactive | inactive | Cc1cnc(N2CCN[C@@H](Cc3ccccc3)C2)nc1Oc1ccc(-n2ccnc2)cc1
30 | inactive | inactive | CN1CCN(c2cc(-c3ccc(F)cc3)nc(-c3ccncc3)n2)CC1

More lines, now with the values behind:

Row | SMILES | inhibition [1] | inhibition [2]
31 | CS(=O)(=O)c1ccccc1C(=O)N(Cc1ccccc1)c1ccccc1 | inactive | inactive
32 | O=C(Nc1cnc2ccccc2c1)c1cccc(-n2cnnn2)c1 | inactive | inactive
33 | Cc1nc(-c2ccccn2)nc(NCCc2ccc(S(C)(=O)=O)cc2)c1Cl | inactive | inactive
34 | CCc1ccc([C@@H]2C[C@H](C(F)(F)F)n3ncc(C(=O)NCc4ccc(OC)cc4)c3N2)cc1 | inactive | inactive
35 | CC(=O)NCC1CN(c2ccc(-c3ccc(CNCc4cn[nH]n4)cc3)c(F)c2)C(=O)O1 (stereo not drawn) | inactive | inactive
36 | COC(=O)c1c(NC(=O)c2c(F)c(F)c(F)c(F)c2F)sc2c1CCCCC2 | inactive | inactive
37 | O=C1N(Cc2cc3ccccc3s2)CC2CN(Cc3ccccc3)CCN12 (stereo not drawn) | inactive | inactive
38 | O=C(NCCc1c[nH]c2ccccc12)c1cc2ccccc2oc1=O | inactive | inactive
39 | CC1=NN(c2nc3ccccc3s2)C(=O)C1Cc1cccc2ccccc12 (stereo not drawn) | inactive | inactive
40 | CCc1ccc(C(NCc2nc(N)nc(N(C)C)n2)C(C)C)cc1 (stereo not drawn) | inactive | inactive
41 | O=C(Nc1nnc(-c2ccc(Cl)cc2)o1)c1cccc(C(F)(F)F)c1 | inactive | inactive
42 | COC(=O)c1c(NC(=O)c2cc3ccccc3oc2=O)sc2c1CCN(Cc1ccccc1)C2 | inactive | inactive
43 | CC(=O)NC[C@H]1CN(c2ccc(N3CCSCC3)c(F)c2)C(=O)O1 | inactive | inactive
44 | Cc1cc(Cl)c(S(=O)(=O)N2CCCC2)cc1OCC(=O)NC1CCCCC1 | inactive | inactive
45 | Nc1ccc(C(=O)Nc2ccc(-c3nc4ccccc4o3)cc2)cc1 | inactive | inactive
46 | Cc1nc2ccccn2c1C(=O)NCc1ccc(Cl)cc1 | inactive | inactive
47 | NC(CC(=O)c1ccc(Cl)cc1Cl)C(Cl)(Cl)Cl (stereo not drawn) | inactive | inactive
48 | COc1cc(-c2cc(-c3ccc(S(C)(=O)=O)cc3)cnc2N)ccc1O | inactive | inactive
49 | O=C(NC1CC1)c1ccc(N2CCOc3ccc(Cl)cc32)s1 | inactive | inactive

Row | SMILES | inhibition [1] | inhibition [2]
50 | CC(=O)Nc1ccc(NC(=O)c2cc(-c3cc(Cl)ccc3O)n[nH]2)cc1 | inactive | inactive
51 | COc1ccc(N(CCc2cccc(C)n2)C(=O)C2CCCCC2)cc1 | inactive | inactive
52 | O=C1O[C@@H](CO)CN1c1cc(F)c(C2=CCN(Cc3ccccc3)CC2)c(F)c1 | inactive | inactive
53 | NCC(c1cccs1)S(=O)(=O)c1ccccc1 (stereo not drawn) | inactive | inactive
54 | Cc1nn(Cc2ccccc2)c(Cl)c1C(=O)NC1CCCCCC1 | inactive | inactive
55 | CCC(=O)Nc1ccccc1C(=O)Nc1ccccn1 | inactive | inactive
56 | Nc1cccnc1Nc1ccc(Cl)cc1 | inactive | inactive
57 | OC[C@H]1O[C@@H](n2c3ccc(Cl)cc3c3c(-c4cc5ccccc5o4)ncnc32)C(O)[C@H]1O (stereo partly drawn) | inactive | inactive
58 | O=C1O[C@@H](COc2ccon2)CN1c1cc(F)c(C2=CCN(Cc3ccccc3)CC2)c(F)c1 | inactive | inactive
59 | FC(F)(F)c1ccc(N(c2cccnc2)C2CCN(c3ccc(C(F)(F)F)cn3)CC2)cc1 | inactive | inactive
60 | CN1CCCC1CCO[C@](C)(c1ccccc1)c1ccc(Cl)cc1 (stereo partly drawn) | inactive | inactive
61 | Cc1cc(Nc2ccncc2)n2nc(C)c(-c3ccccc3Cl)c2n1 | inactive | inactive
62 | Cc1ccc2oc(-c3cc(NC(=O)Cc4ccccc4)ccc3Cl)nc2c1 | inactive | inactive
63 | O=C(NC1=NCCS1)c1sc2cc(F)ccc2c1Cl | inactive | inactive
64 | Clc1ccc(-n2cc(COc3ccnc4ccccc34)nn2)cc1 | inactive | inactive
65 | Cc1cc(OCC(=O)NCc2ccccc2)c2cc(Br)ccc2n1 | inactive | inactive
66 | CC(=O)N1CCc2cc3nc(C)cc(C)c3cc21 | inactive | inactive
67 | FC(F)(F)c1cc(NCCc2ccccc2)nc(-c2ccccn2)n1 |  | inactive
